In patent US10519106B2, “Urea derivative and use therefor” (Toray Industries, Inc., priority 2015, dated 2019):
Where a name gives a salt, the structure may show the parent alone.

These compounds were tested against T1, intracellular domain of DDR1 (Homo sapiens, UniProt Q08345) (assay: Evaluation of DDR1 inhibition activity with HTRF KinEASE-TK kit). Conditions: intracellular domain of DDR1 5 ng/μL, ATP 25 mol/L (so in the source), TK Substrate-biotin 1000 nmol/L, room temperature, one hour.
T1 construct: the intracellular domain of DDR1 (in a final concentration of 5 ng/μL) (Carna Biosciences, Inc.); purchased Carna Biosciences, Inc
Type: biochemical
Protocol: The DDR1 inhibition activity of the compounds of Examples 1 to 51 was evaluated with HTRF® KinEASE-TK kit (Cisbio Bioassays).
Each test substance was dissolved in dimethyl sulfoxide (hereinafter referred to as DMSO) and then used for the evaluation as described below. Moreover, each of test substances and reagents was diluted in the kinase buffer (Cisbio Bioassays) prepared by adding thereto MgCl2, MnCl2, DTT, and the Supplemental Enzyme buffer (Cisbio Bioassays) to concentrations of 5 mmol/L, 0.5 mmol/L, 0.25 mmol/L, and 50 nmol/L, respectively, and then used. Each test substance (in DMSO in a final concentration of 1%), the intracellular domain of DDR1 (in a final concentration of 5 ng/μL) (Carna Biosciences, Inc.), the phosphate donor ATP (in final concentration of 25 mol/L) (Sigma), and the substrate TK Substrate-biotin (in a final concentration of 1000 nmol/L) (Cisbio Bioassays) were added to a 384-well black plate (Corning) and allowed to react at room temperature for one hour. After completion of the reaction, the TK Antibody-Cryptate (Cisbio Bioassays) and the Streptavidin-XL665 (Cisbio Bioassays) were added thereto and allowed to react at room temperature for one hour. In addition, the plate was provided with a well to which a test substance was not added, and with a well to which the intracellular domain of DDR1 and a test substance were not added.
The fluorescence intensity in each well was measured using a multi-label counter (Envision, PerkinElmer; excitation wavelength: 320 nm, measurement wavelength: 665 nm and 620 nm) to calculate a Ratio (the fluorescence intensity at 665 nm/the fluorescence intensity at 620 nm). The inhibition rate (%) of a test substance at each concentration was calculated based on the formula below. Inhibition rate (%)=([the Ratio obtained from the well containing no test substance]−[the Ratio from a well containing a test substance])/([the Ratio obtained from the well containing no test substance]−[the Ratio obtained from the well containing no intracellular domain of DDR1 and no test substance])×100
The calculated inhibition rates were fitted to a sigmoidal dose-response curve by regression analysis using the Prism 5.04 (GraphPad Software, Inc.) to calculate the ICso0 value of the test substance.

T1 sequence (Q08345 444-876 isoform Q08345-2 limits assumed): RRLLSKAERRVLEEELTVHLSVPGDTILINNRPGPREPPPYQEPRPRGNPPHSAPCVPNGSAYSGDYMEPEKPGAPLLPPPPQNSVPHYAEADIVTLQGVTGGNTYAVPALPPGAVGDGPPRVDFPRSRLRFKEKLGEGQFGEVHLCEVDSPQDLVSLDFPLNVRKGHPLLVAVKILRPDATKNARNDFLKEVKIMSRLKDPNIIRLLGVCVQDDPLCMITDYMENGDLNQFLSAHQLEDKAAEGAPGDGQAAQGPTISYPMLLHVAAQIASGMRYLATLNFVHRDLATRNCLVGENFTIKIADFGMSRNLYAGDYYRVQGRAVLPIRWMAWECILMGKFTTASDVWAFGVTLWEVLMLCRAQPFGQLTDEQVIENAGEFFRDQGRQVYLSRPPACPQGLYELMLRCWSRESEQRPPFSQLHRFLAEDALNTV

| Structure (SMILES) | IC50 [nM] |
| --- | --- |
| CN1CCN(Cc2ccc(NC(=O)NCc3ccccc3Oc3ccc(C(N)=O)cc3)cc2C(F)(F)F)CC1 [Compound of Example 38, 4-(2-((3-(4-((4-methylpiperazin-1-yl)methyl)-3-(trifluoromethyl)phenyl)ureido)methyl)phenoxy)benzamide] | 4.64 |
| NC(=O)c1ccc(Oc2ccccc2CNC(=O)Nc2cc(CN3CCNCC3)cc(C(F)(F)F)c2)cc1 [Compound of Example 39, 4-(2-((3-(3-((piperazin-1-ylmethyl)-5-(trifluoromethyl)phenyl)ureido)methyl)phenoxy)benzamide hydrochloride] | 4.2 |
| NC(=O)c1ccc(Oc2ccccc2CNC(=O)Nc2ccc(CN3CCNCC3)c(C(F)(F)F)c2)cc1 [Compound of Example 40, 4-(2-((3-(4-((piperazin-1-ylmethyl)-5-(trifluoromethyl)phenyl)ureido)methyl)phenoxy)benzamide hydrochloride] | 8.91 |
| NC(=O)c1ccc(Oc2ccccc2CNC(=O)Nc2cc(C(F)(F)F)ccc2OC2CCNCC2)cc1 [Compound of Example 41, 4-(2-((3-(2-(piperidin-4-yloxy)-5-(trifluoromethyl)phenyl)ureido)methyl)phenoxy)benzamide] | 35.2 |
| CNC(=O)c1ccc(Oc2ccccc2CNC(=O)Nc2cccc(C(F)(F)F)c2)cc1 [Compound of Example 42] | 21.5 |
| CNC(=O)c1ccc(Oc2ccccc2CNC(=O)Nc2cc(C(F)(F)F)ccc2OC2COC2)cc1 [Compound of Example 43, 4-(2-((3-(2-(oxetan-3-yloxy)-5-(trifluoromethyl)phenyl)ureido)methyl)phenoxy)-N-methyl-benzamide] | 78.5 |

Now from value to compound:

| IC50 [nM] | Structure (SMILES) |
| --- | --- |
| 23.7 | NC(=O)c1cccc(Oc2ccccc2CNC(=O)Nc2cccc(C(F)(F)F)c2)c1 [Compound of Example 44] |
| 22.5 | CCOc1ccc(C(F)(F)F)cc1NC(=O)NCc1ccccc1Oc1ccc(C(N)=O)cc1 [Compound of Example 46] |
| 23.4 | NC(=O)c1ccc(Oc2ccccc2CNC(=O)Nc2cccc(C(F)(F)F)c2)nc1 [Compound of Example 47, 6-(2-((3-(3-(trifluoromethyl)phenyl)ureido)methyl)phenoxy)nicotinamide] |
| 29.1 | CNC(=O)c1ccc(Oc2ccccc2CNC(=O)Nc2cccc(C(F)(F)F)c2)nc1 [Compound of Example 48, N-methyl-6-(2-((3-(3-(trifluoromethyl)phenyl)ureido)methyl)phenoxy)nicotinamide] |
| 19.3 | NC(=O)c1ccc(Oc2ccccc2CNC(=O)Nc2cccc(Cl)c2)cc1 [Compound of Example 49, 4-(2-((3-(3-chlorophenyl)ureido)methyl)phenoxy)benzamide] |
| 12.3 | COc1ccc(Cl)cc1NC(=O)NCc1ccccc1Oc1ccc(C(N)=O)cc1 [Compound of Example 50] |
| 18.3 | CCOc1ccc(Cl)cc1NC(=O)NCc1ccccc1Oc1ccc(C(N)=O)cc1 [Compound of Example 51] |
